“Also recorded” adds a separate entry of the source.
What was measured:
iBMK-H-Ras^V12G cells [1] = assay: Cell growth with SCD1 inhibitor; type: cell-based, mouse; details: 10% serum, for 3 population doublings
Source text: (§1) Cell lines were from ATCC with the following exceptions: the immortalized Baby Mouse Kidney (iBMK) cell lines were derived from primary kidney epithelial cells from Bax^−/−/Bak^−/− mice, immortalized by E1A and dominant-negative p53 expression, and transfected with control vector, human oncogenic H-Ras^V12G, or myrAKT (31); and the Human Pancreatic Nestin Expressing (HPNE) cells (a generous gift of A. Maitra) were developed from human pancreatic duct by transduction with a retroviral expression vector (pBABEpuro) containing the hTERT gene and transfected with control vector or human oncogenic K-Ras^G12D. Cell lines were routinely passaged in Dulbecco's Modified Eagle Medium (DMEM, Mediatech) with 25 mM glucose and 4 mM glutamine and supplemented with 10% Fetal Bovine Serum (HyClone), 25 IU/ml penicillin, and 25 μg/ml streptomycin (MP Biomedicals) and split at 80% confluence. Metabolic experiments were performed in 6 cm culture dishes with 3 ml of DMEM containing 10% dialyzed serum (DFBS, HyClone). For isotope labeling, glucose and glutamine were replaced with their U-^13C-labeled forms (Cambridge Isotope Labs). […]
(§2) Cell proliferation was determined with either Packed Cell Volume tubes (PCV, Techno Plastic Products AG) or with the xCELLigence system (Roche). […] Xenograft tumors were measured biweekly and tumor volume calculated as volume=(length×width^2×π/6).

iBMK-myrAkt cells [2] = assay: Cell growth with SCD1 inhibitor; type: cell-based, mouse; details: 10% serum
Source text: as §1, §2

SCD1 [3] = biological target: T1, SCD1 (Mus musculus, UniProt P13516); assay: C18:1 labeling from U-13C-glucose and U-13C-glutamine under SCD1 inhibition, iBMK cells; type: cell-based; details: 200 nM CAY10566, iBMK-H-Ras^V12G and iBMK-myrAkt cells, 48 h
T1 construct: endogenous in cells; host or cells: iBMK cells transfected with human H-Ras V12G or myrAkt (SCD1 itself not transfected)
T1 sequence (P13516 1-355): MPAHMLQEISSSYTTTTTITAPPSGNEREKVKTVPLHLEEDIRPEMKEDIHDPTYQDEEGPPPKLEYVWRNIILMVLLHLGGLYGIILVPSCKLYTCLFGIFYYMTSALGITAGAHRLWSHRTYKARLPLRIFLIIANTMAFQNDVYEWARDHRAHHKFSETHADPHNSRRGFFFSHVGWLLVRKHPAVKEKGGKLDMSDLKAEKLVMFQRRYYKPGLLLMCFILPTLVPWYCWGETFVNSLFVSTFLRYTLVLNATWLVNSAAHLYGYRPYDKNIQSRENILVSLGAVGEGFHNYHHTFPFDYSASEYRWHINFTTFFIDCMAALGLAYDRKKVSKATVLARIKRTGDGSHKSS
Source text: as §1, with “Labs). Hypoxia experiments were performed in a hypoxic glove box (0.5% or 1% O2 as indicated, 5% CO2 and 94-94.5% N2, 37° C.) (Coy Laboratory Products). Cells and media were equilibrated in low oxygen overnight before experiment initiation. CAY10566 was from Cayman Chemical.” for “Labs).”

iBMK-H-Ras^V12G tumors = assay: Allograft tumor growth in athymic nude mice; type: in vivo, mouse; details: Ras-driven tumors, 2.5 mg/kg CAY10566 p.o. BID, day 13 or 14 post therapy
Experimental: (§3) Cell proliferation was determined with either Packed Cell Volume tubes (PCV, Techno Plastic Products AG) or with the xCELLigence system (Roche). Animal studies were performed following the guidelines for proper and humane use of animals in research under an IACUC-approved protocol. To generate allografts, 1×10^7 iBMK cells were implanted in matrigel (BD Biosciences) into nu/nu athymic female mice. After establishment of palpable tumors, mice were randomized to receive 2.5 mg/kg BID CAY10566 p.o. in 0.5% methylcellulose or vehicle control. Xenograft tumors were measured biweekly and tumor volume calculated as volume=(length×width^2×π/6).

iBMK-myrAkt tumors = assay: Allograft tumor growth in athymic nude mice; type: in vivo, mouse; details: Akt-driven tumors, 2.5 mg/kg CAY10566 p.o. BID, day 13 or 14 post therapy
Experimental: as §3

SCD1 [4] = biological target: T2, SCD1 (Homo sapiens, UniProt O00767); assay: C18:1 labeling from U-13C-glucose and U-13C-glutamine under SCD1 inhibition, A549 cells; type: cell-based; details: 200 nM CAY10566, A549 cells
T2 construct: endogenous in cells; host or cells: A549 lung cancer cells (ATCC)
T2 sequence (O00767 1-359): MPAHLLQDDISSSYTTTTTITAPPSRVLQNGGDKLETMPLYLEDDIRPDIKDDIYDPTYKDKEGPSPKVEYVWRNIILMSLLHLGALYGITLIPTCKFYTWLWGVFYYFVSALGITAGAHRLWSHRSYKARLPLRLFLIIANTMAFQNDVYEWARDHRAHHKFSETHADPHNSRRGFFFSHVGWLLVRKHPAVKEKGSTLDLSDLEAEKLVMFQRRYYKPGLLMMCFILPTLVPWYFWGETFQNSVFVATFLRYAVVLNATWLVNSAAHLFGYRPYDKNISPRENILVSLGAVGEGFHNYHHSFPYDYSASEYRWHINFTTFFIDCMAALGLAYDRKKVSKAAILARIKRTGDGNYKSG
Source text: as §1, with “Labs). Hypoxia experiments were performed in a hypoxic glove box (0.5% or 1% O2 as indicated, 5% CO2 and 94-94.5% N2, 37° C.) (Coy Laboratory Products). Cells and media were equilibrated in low oxygen overnight before experiment initiation. CAY10566 was from Cayman Chemical.” for “Labs).”

A549 lung cancer cells = assay: Cell growth with SCD1 inhibitor (xCELLigence real-time proliferation / culture dishes); type: cell-based, human
Source text: (§4) Cell lines were from ATCC with the following exceptions: the immortalized Baby Mouse Kidney (iBMK) cell lines were derived from primary kidney epithelial cells from Bax^−/−/Bak^−/− mice, immortalized by E1A and dominant-negative p53 expression, and transfected with control vector, human oncogenic H-Ras^V12G, or myrAKT (31); and the Human Pancreatic Nestin Expressing (HPNE) cells (a generous gift of A. Maitra) were developed from human pancreatic duct by transduction with a retroviral expression vector (pBABEpuro) containing the hTERT gene and transfected with control vector or human oncogenic K-Ras^G12D. Cell lines were routinely passaged in Dulbecco's Modified Eagle Medium (DMEM, Mediatech) with 25 mM glucose and 4 mM glutamine and supplemented with 10% Fetal Bovine Serum (HyClone), 25 IU/ml penicillin, and 25 μg/ml streptomycin (MP Biomedicals) and split at 80% confluence. Metabolic experiments were performed in 6 cm culture dishes with 3 ml of DMEM containing 10% dialyzed serum (DFBS, HyClone). For isotope labeling, glucose and glutamine were replaced with their U-^13C-labeled forms (Cambridge Isotope Labs). Hypoxia experiments were performed in a hypoxic glove box (0.5% or 1% O2 as indicated, 5% CO2 and 94-94.5% N2, 37° C.) (Coy Laboratory Products). Cells and media were equilibrated in low oxygen overnight before experiment initiation. CAY10566 was from Cayman Chemical. Lipid supplements were from Avanti Polar Lipids. LPC(18:1) and LPC(18:0) were dissolved in phosphate buffered saline (PBS); MG(18:1) in methanol; and PC(16:0-18:1) in 1:9 chloroform:methanol. Organic solvents were <0.1% v/v in the medium.
as §2, with “(Roche). Animal studies were performed following the guidelines for proper and humane use of animals in research under an IACUC-approved protocol.” for “(Roche).”

iBMK cells = assay: Lipid composition and C18:1 import after LPC(18:1) supplementation; type: cell-based, mouse; details: 20 μM LPC(18:1)
Source text: as §4, with “Lipid supplements were from Avanti Polar Lipids. LPC(18:1) and LPC(18:0) were dissolved in phosphate buffered saline (PBS); MG(18:1) in methanol; and PC(16:0-18:1) in 1:9 chloroform:methanol. Organic solvents were <0.1% v/v in the medium.” left out

A549 cells = assay: Packed cell volume with SCD1 inhibitor plus supplemented lipids; type: cell-based, human; details: 200 nM SCDi (CAY10566), 20 μM lipid, 72 h
Source text: as §1, §2

iBMK-H-Ras^V12G cells [5] = assay: as above; type: cell-based, mouse; details: 200 nM SCDi (CAY10566), 20 μM lipid, 72 h
Source text: as §4
as §2, with “(Roche). Animal studies were performed following the guidelines for proper and humane use of animals in research under an IACUC-approved protocol.” for “(Roche).”

iBMK-myrAkt cells [6] = assay: as above; type: cell-based, mouse; details: 200 nM SCDi (CAY10566), 20 μM lipid, 72 h
Source text: as §4
as §2, with “(Roche). Animal studies were performed following the guidelines for proper and humane use of animals in research under an IACUC-approved protocol.” for “(Roche).”

cells = assay: Rescue of cells from SCD1 inhibition (discussion summary); type: cell-based; details: cell line not stated

Molecule | cell growth (iBMK-H-Ras^V12G cells [1]) | cell growth (iBMK-myrAkt cells [2]) | C18:1 labeling / SCD1 block (SCD1 [3]) | mean tumor volume relative to untreated tumors (iBMK-H-Ras^V12G tumors) | mean tumor volume relative to untreated tumors (iBMK-myrAkt tumors) | C18:1 labeling from U-13C-glucose and U-13C-glutamine (SCD1 [4]) | cell growth in real-time cell proliferation assay (A549 lung cancer cells; 200 nM CAY10566, 10% serum) | cell growth in standard cell culture conditions (A549 lung cancer cells; 200 nM CAY10566, first 48 h of growth) | cell growth, sensitivity to SCD1 inhibition (A549 lung cancer cells; SCD1 inhibitor, 2% serum) | desaturation index (C18:1/C18:0) (iBMK cells; 72 h, iBMK-H-Ras^V12G cells) | fraction of C18:1 derived from import (iBMK cells; both iBMK-H-Ras^V12G and iBMK-myrAkt cells) | proliferation during SCD1 inhibition with supplemented lipid (A549 cells) | proliferation / cell growth during SCD1 inhibition with supplemented lipid (iBMK-H-Ras^V12G cells [5]) | proliferation during SCD1 inhibition with supplemented lipid (iBMK-myrAkt cells [6]) | rescue of cells from SCD1 inhibition (cells)
Cc1nnc(-c2ccc(N3CCC(Oc4cc(F)ccc4Cl)CC3)nn2)o1 [CAY10566] | grew almost normally | severely impaired | fully blocked; also recorded: sufficient to fully block C18:1 labeling | 0.67+/−0.05 | 0.51+/−0.04 | completely blocked; also recorded: blocks C18:1 labeling | did not impair cell growth | did not impair cell growth | sensitive |  |  |  |  |  | 
CCCCCCCC/C=C\CCCCCCCC(=O)OC[C@@H](O)COP(=O)([O-])OCC[N+](C)(C)C [LPC(18:1), oleoyl lysophosphatidylcholine] |  |  |  |  |  |  |  |  |  | increased significantly and selectively | increasing | complete rescue | fully restored proliferation | only partially | rescues cells from SCD1 inhibition
oleolyl-monoacylglycerol [MG(18:1)] |  |  |  |  |  |  |  |  |  |  |  |  | restored cell proliferation |  | 

— patent US20160120832A1, “LIPID SCAVENGING IN RAS CANCERS” (MEMORIAL SLOAN KETTERING CANCER CENTER, priority 2013, published 2016)
